# Assays:
# [1] = tested on: STAT3 target genes in SKBR3 cells; test: STAT3 target gene expression by qRT-PCR in SKBR3 cells; format: cell-based, human; details: 300 μg/ml folinic acid
# Description: (§1) Cells were stimulated with 10 ng/ml interleukin 6 (Peprotech) or 10 ng/ml OSM (Peprotech). Cells were stimulated for 15 min for whole cell lysate immunoblotting, 60 to 90 min for qRT–PCR, and 5 to 6 h for luciferase reporter assays.
# Total RNA was extracted from cells using the RNeasy Mini Kit (Qiagen). Complementary DNA was generated using the TaqMan Reverse Transcription Reagents (Invitrogen). qPCR was performed in triplicate or quadruplicate using the Power SYBR Green PCR Master Mix (Invitrogen) on a 7500 Real-Time PCR System (Applied Biosystems) or a QuantStudio 6 Flex Real-Time PCR System (Applied Biosystems). Specificity of amplification was confirmed by melting curve analysis. Cycle threshold (CT) values for target genes were normalized to the endogenous reference gene GAPDH. Primer sequences (Table S3) were designed from the University of California Santa Cruz genome browser reference mRNA sequences using Primer3 ([43]).
# [2] = tested on: STAT3 transcriptional activity in U3A cells; test: STAT3-dependent luciferase reporter assay; format: cell-based, human
# Description: STAT3-dependent luciferase activity was then used as a measure of STAT3 transcriptional activity.
# as §1
# U3A cells (3 × 10^3) were plated in white opaque 96-well plates and allowed to adhere overnight. For siRNA-mediated knockdown, cells were left in the incubator for 48 h. For drug-mediated inhibition, cells were pretreated with compound for 1 h. Cells were then stimulated with cytokine for 5 to 6 h to activate STAT3. Luciferase activity was detected using the Bright-Glo Luciferase Assay System (Promega) and quantitated using a Luminoskan Ascent Microplate Reader (Labsystems).
# [3] = tested on: STAT3 target genes in U3A cells; test: STAT3 target gene expression by qRT-PCR in U3A cells; format: cell-based, human
# MDA-MB-468 cells = test: Viability assay (CellTiter-Glo, number of viable cells); format: cell-based, human; details: 300 μg/ml folinic acid, 48 h
# Description: We specifically hypothesized that folinic acid would prevent pyrimethamine-mediated loss of viability and loss of STAT3 transcriptional activity by bypassing DHFR and restoring the folate-dependent processes required for STAT3 transcriptional activity. […] Since MDA-MB-468 cells are dependent on STAT3 activity for survival, loss of viability can reflect STAT3 inhibition.
# Cells (3–5 × 10^3) were plated in white opaque 96-well plates. The next day, cells were treated as indicated. ATP levels were detected at the indicated time points as a proxy for number of viable cells using the CellTiter-Glo Luminescent Cell Viability Assay (Promega). Luminescence was measured using a Luminoskan Ascent Microplate Reader (Labsystems).
# [4] = tested on: STAT3 target genes in MDA-MB-468 cells; test: STAT3 target gene expression by qRT-PCR in MDA-MB-468 cells; format: cell-based, human; details: MDA-MB-468, 10 μM, 24 h
# [5] = Solubility limit of folic acid in cell experiments; format: physicochemical; details: culture media; read-out: maximum concentration testable because of solubility limitations
# [6] = tested on: pSTAT3 in MDA-MB-468 cells; test: STAT3 tyrosine phosphorylation by immunoblotting; format: cell-based, human; details: 24 h, immunoblot
# [7] = tested on: polar metabolites of MDA-MB-468 cells; test: LC/MS-based metabolite profiling; format: cell-based, human; details: MDA-MB-468, 24 h, 10 μM pyrimethamine or 0.05 μM methotrexate
smiles,measurement,setting,value
Nc1nc(=O)c2c([nH]1)NCC(CNc1ccc(C(=O)N[C@@H](CCC(=O)O)C(=O)O)cc1)N2C=O (mixture of isomers) [folinic acid],effect on pyrimethamine-mediated loss of OSM-stimulated BCL6 expression,[1],partially prevented
same,rescue of the effect of methotrexate on STAT3-dependent luciferase,[2]; 1 μM methotrexate,able to rescue
same,effect on TG101-mediated loss of STAT3-dependent luciferase,[2]; 10 μM TG101,no effect
same,effect on the ability of pyrimethamine to inhibit OSM-stimulated STAT3 transcriptional activity,"[2]; 10 μM pyrimethamine, tested concentrations of folate",significantly reduced
same,effect on pyrimethamine-mediated loss of OSM-stimulated BCL6 expression,[3]; 300 μg/ml folinic acid,completely prevented
same,effect on TG101-dependent loss of viable cells,MDA-MB-468 cells,very little effect
same,effect on pyrimethamine-dependent and methotrexate-dependent decreases in the number of viable cells,MDA-MB-468 cells,almost completely prevented
"Cc1cnc(Nc2ccc(OCCN3CCCC3)cc2)nc1Nc1cccc(S(=O)(=O)NC(C)(C)C)c1 [TG101, TG101348]",SOCS3 expression in the presence of folinic acid,[4]; 300 μg/ml folinic acid,still reduced
same,SOCS3 expression in the absence of folinic acid,[4],significantly reduced
Nc1nc2ncc(CNc3ccc(C(=O)N[C@@H](CCC(=O)O)C(=O)O)cc3)nc2c(=O)[nH]1 [folic acid],solubility,[5],0.01 mg/mL
CN(Cc1cnc2nc(N)nc(N)c2n1)c1ccc(C(=O)N[C@@H](CCC(=O)O)C(=O)O)cc1 [methotrexate],total / constitutive STAT3 tyrosine phosphorylation (pSTAT3),[6],decrease
same,OSM-stimulated STAT3 activity (luciferase),"[2]; 0.5 and 1 μM, 1 h pretreatment, OSM 5 h",decreased
same,OSM-stimulated expression of BCL6 and STAT3,"[3]; 1 μM 1 h, 10 ng/ml OSM 90 min",significantly reduced
same,deoxyuridine monophosphate level compared with DMSO or ruxolitinib,[7],significantly accumulated
same,purine synthesis intermediates 5-aminoimidazole-4-carboxamide ribonucleotide and glycineamide ribonucleotide,[7],significant increase
Cc1cn([C@H]2C[C@H](O)[C@@H](CO)O2)c(=O)[nH]c1=O [thymidine],"effect on pyrimethamine inhibition of STAT3 transcriptional activity (viable cells, luciferase, target genes)",[2]; thymidine added with 10 μM pyrimethamine,reduced the ability
same,rescue of methotrexate-mediated loss of STAT3 activity,[2]; thymidine added with methotrexate,unable to rescue

# Source: paper PMC8800111 (The Journal of Biological Chemistry, 2021)
